# Experimental data from publication doi:10.1101/2024.08.25.609621 (bioRxiv, 2024).
# Like-named read-outs stand apart in the source and are kept apart here.
# Assays:
# [1] = target: SARS-CoV-2 NSP3 macrodomain (Mac1) (Severe acute respiratory syndrome coronavirus 2, UniProt P0DTD1); assay: biochemical; format: binding; conditions: for Ki: read-out: SARS CoV-2 macrodomain HTRF assay: Ki; for Ligand efficiency (binding enery per heavy atom): from SARS CoV-2 macrodomain HTRF assay
# [2] = target: SARS-CoV-2 NSP3 macrodomain (Mac1), P43 crystal form (Severe acute respiratory syndrome coronavirus 2, UniProt P0DTD1); format: binding
# [3] = Single dose, concentration 200 μM, read-out: Average % competition
# [4] = preliminary screen, compound at 200 μM, mean of 3-4 technical replicates, read-out: % competition in HTRF assay
# [5] = Single dose, concentration 200 μM, read-out: SARS CoV-2 macrodomain HTRF assay: Average % competition
# [6] = ligand modeling in Mac1 crystal soak
# [7] = dose-response, read-out: SARS CoV-2 macrodomain HTRF assay: IC50
# [8] = ligand modeling in Mac1 crystal structure
smiles,measurement,setting,value
O[C@@]1(Cn2ccnn2)CCCN(c2ncnc3[nH]ccc23)C1 [AVI-608],inhibition at 200 µM,[1]; [3],8%
same,inhibition at 200 µM,[1]; [4],< 10%
OC[C@@H]1C[C@H](F)CN1c1ncnc2[nH]ccc12 [AVI-609],inhibition at 200 µM,[1]; [5],52%
same,inhibition at 200 µM,[1]; [4],52%
same,Number of isomers bound,[2]; [6],1
OC[C@@H]1C[C@H](O)CN1c1ncnc2[nH]ccc12 [AVI-610],IC50,[1]; [7],160 µM
same,Ki,[1]; dose-response,150 µM
same,Ligand efficiency (binding enery per heavy atom),[1],0.31
same,Number of isomers bound,[2]; [6],1
O[C@@H]1CNCC[C@H]1Nc1ncnc2[nH]ccc12 [AVI-613],inhibition at 200 µM,[1]; [3],< 10%
same,inhibition at 200 µM,[1]; [4],< 10%
CN(C)C[C@@]1(O)CCCN(c2ncnc3[nH]ccc23)C1 [AVI-614],inhibition at 200 µM,[1]; [3],< 10%
same,inhibition at 200 µM,[1]; [4],< 10%
O[C@H]1CNCC[C@@H]1Nc1ncnc2[nH]ccc12 [AVI-615],inhibition at 200 µM,[1]; [5],< 10%
same,inhibition at 200 µM,[1]; [4],< 10%
"O[C@H]1COC[C@@H]1Nc1ncnc2[nH]ccc12 [AVI-1444, (3R,4S)-4-((7H-pyrrolo[2,3-d]pyrimidin-4-yl)amino)tetrahydrofuran-3-ol]",Number of isomers bound,[2]; [6],1
O=C(O)C(F)(F)F.OC1c2ccccc2CC1Nc1ncnc2[nH]ccc12 (centres unmarked) [AVI-3634],inhibition at 200 µM,[1]; [3],< 10%
same,inhibition at 200 µM,[1]; [4],< 10%
O=C(O)C(F)(F)F.OCC(Nc1ncnc2[nH]ccc12)C1CCCO1 (centres unmarked) [AVI-3645],inhibition at 200 µM,[1]; [3],54%
same,inhibition at 200 µM,[1]; [4],54%
O=C(O)C(F)(F)F.OC[C@@H](CCc1ccccc1)Nc1ncnc2[nH]ccc12 [AVI-3654],inhibition at 200 µM,[1]; [3],27%
same,inhibition at 200 µM,[1]; [4],27%
CC(C)CCC(CO)Nc1ncnc2[nH]ccc12.O=C(O)C(F)(F)F (centres unmarked) [AVI-3668],inhibition at 200 µM,[1]; [3],38%
same,inhibition at 200 µM,[1]; [4],38%
O=[N+]([O-])c1ccc(C(O)C(CO)Nc2ncnc3[nH]ccc23)cc1 (centres unmarked) [AVI-3672],inhibition at 200 µM,[1]; [3],43%
same,inhibition at 200 µM,[1]; [4],43%
O=C(O)C(F)(F)F.OCC(CC1CCOCC1)Nc1ncnc2[nH]ccc12 (centres unmarked) [AVI-3676],inhibition at 200 µM,[1]; [3],< 10%
same,inhibition at 200 µM,[1]; [4],< 10%
O=C(O)C(F)(F)F.OCC(Nc1ncnc2[nH]ccc12)C(O)C1CCCCC1 (centres unmarked) [AVI-3687],inhibition at 200 µM,[1]; [3],33%
same,inhibition at 200 µM,[1]; [4],33%
O=C(O)C(F)(F)F.OCC(Cc1cccc(F)c1)Nc1ncnc2[nH]ccc12 (centres unmarked) [AVI-3706],inhibition at 200 µM,[1]; [3],77%
same,inhibition at 200 µM,[1]; [4],77%
O=C(O)C(F)(F)F.OCC1C2C=CC(C2)N1c1ncnc2[nH]ccc12 (centres unmarked) [AVI-3712],inhibition at 200 µM,[1]; [5],55%
same,inhibition at 200 µM,[1]; [4],55%
CC(C)(C)C(O)CC(CO)Nc1ncnc2[nH]ccc12.O=C(O)C(F)(F)F (centres unmarked) [AVI-3714],inhibition at 200 µM,[1]; [3],< 10%
same,inhibition at 200 µM,[1]; [4],< 10%
OCC1CCC2(CCOCC2)CN1c1ncnc2[nH]ccc12 (centres unmarked) [AVI-4065],IC50,[1]; [7],430 µM
same,Ki,[1]; dose-response,400 µM
same,Ligand efficiency (binding enery per heavy atom),[1],0.21
CC1(C)CCC(O)(CNc2ncnc3[nH]ccc23)CC1 [AVI-4310],IC50,[1]; [7],76 µM
same,Ki,[1]; dose-response,71 µM
same,Ligand efficiency (binding enery per heavy atom),[1],0.29
OC1(CNc2ncnc3[nH]ccc23)CCC2(CC1)OCCO2 [AVI-4315],IC50,[1]; [7],210 µM
same,Ki,[1]; dose-response,200 µM
same,Ligand efficiency (binding enery per heavy atom),[1],0.23
CC(Nc1ncnc2[nH]ccc12)C1(O)CCCCC1 (centres unmarked) [AVI-4321],IC50,[1]; [7],48 µM
same,Ki,[1]; dose-response,45 µM
same,Ligand efficiency (binding enery per heavy atom),[1],0.32
Cc1c[nH]c2ncnc(NCC3(O)CCC(O)CC3)c12 (centres unmarked) [AVI-4329],Number of isomers bound,[2]; [8],1
same,Isomers modeled,[2]; stereoisomer(s) modeled in Mac1 crystal structure,"rr,rr"
Cc1c[nH]c2ncnc(NCC3(O)CCC(C)(C)CC3)c12 [AVI-4330],IC50,[1]; [7],650 µM
same,Ki,[1]; dose-response,610 µM
same,Ligand efficiency (binding enery per heavy atom),[1],0.21
OCC1(Nc2ncnc3[nH]ccc23)COC1 [AVI-5649],inhibition at 200 µM,[1]; [3],< 10%
same,inhibition at 200 µM,[1]; [4],< 10%
CC(C)(C)C1CCCN1c1ncnc2[nH]ccc12 (centres unmarked) [AVI-6000],Number of isomers bound,[2]; [8],1
Nc1cccc(CSC2CCc3ccccc32)n1 (centres unmarked) [AVI-6015],IC50,[1]; read-out: IC50,> 1000 µM
CC(O)C1CCN(c2cc(N3CCC(c4ccccc4)CC3C)ncn2)C1 (centres unmarked) [AVI-6016],IC50,[1]; read-out: IC50,> 1000 µM
Nc1ncnc(N2CCCCC3(CCC3)C2)c1Cl [AVI-6017],IC50,[1]; read-out: IC50,> 1000 µM
Cc1ccc(C(=O)O)cc1NCc1ccc2nsnc2c1 [AVI-6018],IC50,[1]; read-out: IC50,> 1000 µM
O=C1OC(CSC2CCC(O)C2)CN1C1CCCCC1 (centres unmarked) [AVI-6019],IC50,[1]; read-out: IC50,> 1000 µM
Cn1c(=O)[nH]c(=O)c2c1nc(Br)n2CC(=O)C1CCC(F)(F)CC1 [AVI-6020],IC50,[1]; read-out: IC50,> 1000 µM
